Experimental data from ChEMBL document CHEMBL1131368, “Synthesis of novel substituted pyridines as inhibitors of endothelin converting enzyme-1 (ECE-1)” (Bioorg Med Chem Lett, 1998).

Target: T1, Endothelin-converting enzyme 1 (Homo sapiens, UniProt P42892)
T1 sequence (P42892 whole entry): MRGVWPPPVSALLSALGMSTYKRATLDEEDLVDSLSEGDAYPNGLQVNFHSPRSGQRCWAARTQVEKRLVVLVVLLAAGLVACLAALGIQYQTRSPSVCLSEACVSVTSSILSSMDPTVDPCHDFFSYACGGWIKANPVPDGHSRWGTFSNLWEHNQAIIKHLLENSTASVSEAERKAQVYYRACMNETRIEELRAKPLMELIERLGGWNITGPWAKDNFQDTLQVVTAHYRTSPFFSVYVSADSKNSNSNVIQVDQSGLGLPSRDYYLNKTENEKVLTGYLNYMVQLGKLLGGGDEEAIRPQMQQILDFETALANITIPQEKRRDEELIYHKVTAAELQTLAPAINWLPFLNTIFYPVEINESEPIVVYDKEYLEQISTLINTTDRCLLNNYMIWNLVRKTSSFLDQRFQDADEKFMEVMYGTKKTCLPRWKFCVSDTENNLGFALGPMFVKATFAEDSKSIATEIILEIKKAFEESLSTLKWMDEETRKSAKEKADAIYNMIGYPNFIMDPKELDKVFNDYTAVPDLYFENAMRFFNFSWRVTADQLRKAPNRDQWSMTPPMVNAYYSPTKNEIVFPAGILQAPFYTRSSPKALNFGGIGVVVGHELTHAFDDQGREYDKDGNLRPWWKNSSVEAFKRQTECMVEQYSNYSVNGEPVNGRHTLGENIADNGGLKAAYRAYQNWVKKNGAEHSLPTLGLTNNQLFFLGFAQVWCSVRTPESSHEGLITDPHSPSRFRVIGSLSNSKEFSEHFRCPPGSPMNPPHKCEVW
Experiment: Inhibition of human recombinant Endothelin-converting enzyme 1.

| Compound | IC50 [nM] |
| --- | --- |
| CNc1nc(-c2nc(C(=O)O)cc(OC)c2OC)cs1 | 2600 |
| COc1ccc(C(=O)O)nc1-c1csc(-c2ccc(-c3ccccc3)cc2)n1 | 10000 |
| COc1cc(C(=O)O)nc(-c2cccn2C)c1OC | > 50000 |
| COc1ccc(C(=O)O)nc1-c1nccs1 | 24000 |
| COc1cc(C(=O)O)nc(-c2ccoc2)c1OC | > 50000 |
| Cc1nc(-c2cccc(C(=O)O)n2)cs1 | 10000 |
| COc1cc(C(=O)O)nc(-c2ccsc2)c1OC | > 50000 |
| COc1cc(C(=O)O)nc(-c2cscn2)c1OC | 4300 |

Now those with a lower IC50, led by results:

| IC50 [nM] | Compound |
| --- | --- |
| 2400 | COc1ccc(C(=O)O)nc1-c1c[nH]cn1 |
| 1500 | COc1ccc(C(=O)O)nc1-c1csc(-c2ccc3ccccc3c2)n1 |
| 1400 | COc1ccc(C(=O)O)nc1-c1csc(C)n1 |
| 1400 | COc1cc(C(=O)O)nc(-c2csc(C)n2)c1OC |
| 1300 | COc1ccc(C(=O)O)nc1-c1csc(-c2ccccc2)n1 |
| 980 | COc1ccc(C(=O)O)nc1-c1csc(CCc2ccccc2)n1 |
| 860 | COc1ccc(C(=O)O)nc1-c1csc(Cc2ccccc2)n1 |
